According to patent publication US20090239840A1, “AMINO SUBSTITUTED DIARYL[a,d]CYCLOHEPTENE ANALOGS AS [sequence] AGONISTS AND METHODS OF TREATMENT OF NEUROPSYCHIATRIC DISORDERS” (ACADIA PHARMACEUTICALS, INC., priority 2003, published 2009):
Like-named read-outs stand apart in the source and are kept apart here.

What was measured:
Ames mutagenesis assay = type: cell-based
[1] = system: hyperactivity induced by amphetamine; experiment: Amphetamine induced hyperactivity mouse model; type: in vivo; details: mice, salts of the compounds
Experimental: (§1) Five of the compounds listed in Table 2 were tested in an in vivo assay predictive of antipsychotic activity. Salts of these compounds where administered to mice having hyperactivity induced by amphetamine or MK-801 administration. The compounds were administered both subcutaneously (sc) and orally (po).

CYP 2C9 = CYP 2C9 (Homo sapiens, UniProt P11712); experiment: CYP inhibition, 2C9; type: in vitro ADME
5-HT2A receptor = 5-HT2A receptor (Homo sapiens, UniProt P28223); experiment: Receptor profile, 5-HT2A inverse agonism; type: cell-based; details: negative log of the inhibitory IC50 (inverse agonism); read-out: 5-HT2A pIEC50 (converted)
Rat microsomal clearance = type: in vitro ADME; details: rat microsomes
CYP 2D6 = CYP 2D6 (Homo sapiens, UniProt P10635); experiment: CYP inhibition, 2D6; type: in vitro ADME
[2] = system: hyperactivity induced by MK-801; experiment: MK-801 induced hyperactivity mouse model; type: in vivo; details: mice, salts of the compounds
Experimental: as §1

CYP 2C19 = CYP 2C19 (Homo sapiens, UniProt P33261); experiment: CYP inhibition, 2C19; type: in vitro ADME
[3] = Human microsomal clearance; type: in vitro ADME; details: human microsomes
CYP 1A2 = target: T1, CYP 1A2 (Homo sapiens, UniProt P05177); experiment: CYP inhibition, 1A2; type: in vitro ADME
T1 sequence (P05177 1-516): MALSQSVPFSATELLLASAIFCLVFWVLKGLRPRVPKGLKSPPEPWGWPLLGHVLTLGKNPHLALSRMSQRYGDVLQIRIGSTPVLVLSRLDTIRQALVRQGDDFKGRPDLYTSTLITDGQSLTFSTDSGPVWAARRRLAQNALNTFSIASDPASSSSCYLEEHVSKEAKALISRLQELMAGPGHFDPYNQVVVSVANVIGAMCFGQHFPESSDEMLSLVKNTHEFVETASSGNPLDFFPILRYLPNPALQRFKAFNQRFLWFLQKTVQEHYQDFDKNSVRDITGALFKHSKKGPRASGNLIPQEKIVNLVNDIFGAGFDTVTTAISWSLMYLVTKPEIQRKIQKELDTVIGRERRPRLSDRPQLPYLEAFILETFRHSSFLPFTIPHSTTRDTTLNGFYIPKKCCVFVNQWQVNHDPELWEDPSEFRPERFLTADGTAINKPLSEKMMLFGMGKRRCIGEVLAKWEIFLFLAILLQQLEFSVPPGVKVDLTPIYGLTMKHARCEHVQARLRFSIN

CYP 3A4 = CYP 3A4 (Homo sapiens, UniProt P08684); experiment: biochemical
Experimental: The compounds listed in Table 4 were profiled in a panel of in vitro assays for assessment of cardiovascular (hERG), drug-drug interaction (CYP inhibition), and mutagenic (Ames) liability. Microsomal stability was also determined by measuring both rat and human microsomal clearance.

D2 receptor = D2 receptor (Homo sapiens, UniProt P14416); experiment: Receptor profile, D2 agonist activity; details: for Emax: read-out: D2 intrinsic activity %
Source text: (§3) Intrinsic activity was normalized to carbachol (M1) or pergolide (D2). For those ligands devoid of agonist activity, the values shown are pKi determined using [3H]raclopride.

muscarinic M2 receptor = target: T2, muscarinic M2 receptor (Homo sapiens, UniProt P08172); experiment: R-SAT functional screen, M2; type: cell-based; details: R-SAT; for Emax: read-out: M2 eff (efficacy); for EC50: read-out: M2 pEC50 (converted)
T2 construct: expressed in transfected cells
T2 sequence (P08172 1-466): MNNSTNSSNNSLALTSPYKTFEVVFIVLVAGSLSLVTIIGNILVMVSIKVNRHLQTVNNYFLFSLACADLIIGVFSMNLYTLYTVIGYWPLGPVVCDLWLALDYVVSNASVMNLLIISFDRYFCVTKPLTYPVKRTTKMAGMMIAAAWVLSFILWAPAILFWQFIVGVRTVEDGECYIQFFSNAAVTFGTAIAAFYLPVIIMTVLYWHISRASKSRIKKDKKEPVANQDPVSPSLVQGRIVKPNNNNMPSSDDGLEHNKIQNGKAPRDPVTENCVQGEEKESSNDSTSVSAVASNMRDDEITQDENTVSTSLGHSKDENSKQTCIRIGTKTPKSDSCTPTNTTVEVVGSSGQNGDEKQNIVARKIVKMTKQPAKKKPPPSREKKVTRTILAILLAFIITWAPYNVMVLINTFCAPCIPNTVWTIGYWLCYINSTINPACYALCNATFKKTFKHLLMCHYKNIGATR
Method in brief: (§2)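 Receptor Selection and Amplification Technology (R-SAT) functional cell assay at M1, M2, M3 receptors. Values reported as efficacy (eff) and potency as pEC50.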

novel object recognition = experiment: Novel object recognition (NOR) assay; type: in vivo; details: mice; for NOR - 60 minutes post training / NOR - 120 minutes post training: dose approx. ID75 in MK-801 hyperactivity assay
Experimental: Salts of the compounds were administered to mice at one hour post-training (a time-point at which animals normally behaviorally discriminate between novel and familiar objects) and two hours post-training (a time-point at which these animals normally no longer discriminate between objects). Doses were selected to correspond to the approximate ID75 value in the MK-801 hyperactivity assay.

M1 receptor = target: T3, M1 receptor (Homo sapiens, UniProt P11229); experiment: Receptor profile, M1 agonist activity; details: for Emax: read-out: M1 intrinsic activity %
T3 sequence (P11229 1-460): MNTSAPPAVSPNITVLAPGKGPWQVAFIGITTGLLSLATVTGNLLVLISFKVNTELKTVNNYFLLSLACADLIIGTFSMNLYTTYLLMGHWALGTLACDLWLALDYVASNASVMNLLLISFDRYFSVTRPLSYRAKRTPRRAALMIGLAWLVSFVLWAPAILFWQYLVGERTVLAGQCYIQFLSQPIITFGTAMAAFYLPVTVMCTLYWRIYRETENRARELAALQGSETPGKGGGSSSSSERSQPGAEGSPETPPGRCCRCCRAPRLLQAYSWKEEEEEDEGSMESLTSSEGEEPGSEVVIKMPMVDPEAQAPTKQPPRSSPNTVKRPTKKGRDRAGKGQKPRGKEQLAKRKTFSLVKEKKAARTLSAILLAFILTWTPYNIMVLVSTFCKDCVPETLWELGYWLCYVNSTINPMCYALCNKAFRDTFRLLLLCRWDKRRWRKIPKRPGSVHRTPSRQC
Source text: as §3

hERG = hERG (Homo sapiens, UniProt Q12809); experiment: hERG assay
muscarinic M1 receptor = target: T4, muscarinic M1 receptor (Homo sapiens, UniProt P11229); experiment: R-SAT functional screen, M1; type: cell-based; details: R-SAT; for Emax: read-out: M1 eff (efficacy); for EC50: read-out: M1 pEC50 (converted)
T4 construct: expressed in transfected cells
T4 sequence (P11229 1-460): T3 sequence (P11229 1-460)
Method in brief: as §2

muscarinic M3 receptor = target: T5, muscarinic M3 receptor (Homo sapiens, UniProt P20309); experiment: R-SAT functional screen, M3; type: cell-based
T5 construct: expressed in transfected cells
Source text: The term “modulate” refers to the ability of a compound disclosed herein to alter the function of a muscarinic receptor. A modulator may activate the activity of a muscarinic receptor, may activate or inhibit the activity of a muscarinic receptor depending on the concentration of the compound exposed to the muscarinic receptor, or may inhibit the activity of a muscarinic receptor. The term “modulate” also refers to altering the function of a muscarinic receptor by increasing or decreasing the probability that a complex forms between a muscarinic receptor and a natural binding partner. A modulator may increase the probability that such a complex forms between the muscarinic receptor and the natural binding partner, may increase or decrease the probability that a complex forms between the muscarinic receptor and the natural binding partner depending on the concentration of the compound exposed to the muscarinic receptor, and or may decrease the probability that a complex forms between the muscarinic receptor and the natural binding partner. In some embodiments, modulation of the muscarinic receptor may be assessed using Receptor Selection and Amplification Technology (R-SAT) as described in U.S. Pat. No. 5,707,798, the disclosure of which is incorporated herein by reference in its entirety.
Several compounds disclosed herein were evaluated for activity at muscarinic receptors using Receptor Selection and Amplification Technology (R-SAT) as described in U.S. Pat. No. 5,707,798, the disclosure of which is incorporated herein by reference in its entirety. The efficacy (eff) and potency (expressed as pEC50) of these compounds are presented in Table 1 at M1, M2, and M3 receptors.

T5 sequence (P20309 whole entry): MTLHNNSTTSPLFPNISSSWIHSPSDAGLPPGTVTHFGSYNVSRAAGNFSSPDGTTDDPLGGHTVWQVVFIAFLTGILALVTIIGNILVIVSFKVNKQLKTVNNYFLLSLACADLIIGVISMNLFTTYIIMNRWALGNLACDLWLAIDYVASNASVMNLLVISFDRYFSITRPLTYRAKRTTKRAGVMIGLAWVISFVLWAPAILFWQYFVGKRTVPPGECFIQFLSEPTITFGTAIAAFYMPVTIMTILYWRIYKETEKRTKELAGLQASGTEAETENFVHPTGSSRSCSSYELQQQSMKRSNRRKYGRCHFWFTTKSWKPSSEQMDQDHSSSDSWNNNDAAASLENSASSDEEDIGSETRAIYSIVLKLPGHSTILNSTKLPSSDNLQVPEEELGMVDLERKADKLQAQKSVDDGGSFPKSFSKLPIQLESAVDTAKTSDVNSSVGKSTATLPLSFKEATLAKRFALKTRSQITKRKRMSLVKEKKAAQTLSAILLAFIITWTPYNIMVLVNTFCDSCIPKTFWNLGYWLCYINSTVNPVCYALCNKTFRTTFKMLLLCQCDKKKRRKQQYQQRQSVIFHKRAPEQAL
Chain of D2 receptor (P14416 whole entry): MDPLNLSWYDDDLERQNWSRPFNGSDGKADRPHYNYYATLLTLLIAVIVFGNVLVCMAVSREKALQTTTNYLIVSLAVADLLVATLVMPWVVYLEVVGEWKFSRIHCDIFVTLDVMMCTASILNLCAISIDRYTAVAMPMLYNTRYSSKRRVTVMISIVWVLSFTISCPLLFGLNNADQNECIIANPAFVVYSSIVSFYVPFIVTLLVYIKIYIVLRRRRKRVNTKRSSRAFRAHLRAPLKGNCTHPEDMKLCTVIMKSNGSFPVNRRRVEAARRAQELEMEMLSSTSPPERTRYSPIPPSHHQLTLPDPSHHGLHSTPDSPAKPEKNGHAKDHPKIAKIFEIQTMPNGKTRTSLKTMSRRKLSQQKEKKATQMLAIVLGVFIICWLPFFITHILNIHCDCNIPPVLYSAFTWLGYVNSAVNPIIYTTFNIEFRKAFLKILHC
Chain of 5-HT2A receptor (P28223 whole entry): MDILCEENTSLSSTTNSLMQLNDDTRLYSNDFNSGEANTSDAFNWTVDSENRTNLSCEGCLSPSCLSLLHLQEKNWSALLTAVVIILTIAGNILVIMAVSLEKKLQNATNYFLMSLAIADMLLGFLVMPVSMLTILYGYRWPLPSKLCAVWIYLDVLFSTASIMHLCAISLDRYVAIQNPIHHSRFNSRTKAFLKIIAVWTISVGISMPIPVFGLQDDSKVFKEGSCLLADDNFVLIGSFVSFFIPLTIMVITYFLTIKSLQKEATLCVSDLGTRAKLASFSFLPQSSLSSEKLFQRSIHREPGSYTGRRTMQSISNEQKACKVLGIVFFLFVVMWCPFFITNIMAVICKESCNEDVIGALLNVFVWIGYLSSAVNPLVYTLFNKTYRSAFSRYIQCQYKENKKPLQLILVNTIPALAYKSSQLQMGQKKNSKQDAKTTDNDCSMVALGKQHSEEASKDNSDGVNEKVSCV
Chain of hERG (Q12809 whole entry): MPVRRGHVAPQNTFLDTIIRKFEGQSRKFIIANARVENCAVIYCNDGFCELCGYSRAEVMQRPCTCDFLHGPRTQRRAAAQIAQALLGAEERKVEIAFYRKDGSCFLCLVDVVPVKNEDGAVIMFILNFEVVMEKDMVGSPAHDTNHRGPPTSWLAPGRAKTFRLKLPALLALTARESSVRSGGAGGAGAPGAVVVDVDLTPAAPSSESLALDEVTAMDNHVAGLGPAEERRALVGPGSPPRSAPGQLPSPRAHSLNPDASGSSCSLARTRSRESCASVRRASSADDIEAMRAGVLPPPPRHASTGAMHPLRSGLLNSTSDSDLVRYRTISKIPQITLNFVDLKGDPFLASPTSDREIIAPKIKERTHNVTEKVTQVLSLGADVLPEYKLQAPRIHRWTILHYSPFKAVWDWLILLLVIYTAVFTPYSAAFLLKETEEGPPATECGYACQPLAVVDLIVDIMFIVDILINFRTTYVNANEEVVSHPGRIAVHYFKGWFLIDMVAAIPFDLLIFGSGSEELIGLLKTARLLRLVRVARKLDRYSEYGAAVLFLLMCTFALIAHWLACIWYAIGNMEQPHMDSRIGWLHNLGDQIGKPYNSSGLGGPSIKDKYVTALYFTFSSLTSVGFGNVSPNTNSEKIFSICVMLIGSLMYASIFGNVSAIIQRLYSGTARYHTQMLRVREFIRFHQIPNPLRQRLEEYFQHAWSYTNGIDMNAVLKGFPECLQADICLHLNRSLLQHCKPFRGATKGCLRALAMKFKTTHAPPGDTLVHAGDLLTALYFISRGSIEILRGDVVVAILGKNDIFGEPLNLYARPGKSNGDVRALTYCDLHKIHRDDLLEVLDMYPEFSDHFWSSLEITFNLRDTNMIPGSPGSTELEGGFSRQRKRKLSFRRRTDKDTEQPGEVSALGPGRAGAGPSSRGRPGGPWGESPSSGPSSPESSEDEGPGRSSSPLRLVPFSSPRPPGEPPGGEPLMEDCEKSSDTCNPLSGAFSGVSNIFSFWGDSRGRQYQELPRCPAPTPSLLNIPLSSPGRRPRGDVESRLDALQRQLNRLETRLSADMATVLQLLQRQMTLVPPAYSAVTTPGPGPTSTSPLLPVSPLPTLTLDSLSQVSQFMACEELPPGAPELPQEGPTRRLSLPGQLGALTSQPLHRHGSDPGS
Chain of CYP 2C19 (P33261 whole entry): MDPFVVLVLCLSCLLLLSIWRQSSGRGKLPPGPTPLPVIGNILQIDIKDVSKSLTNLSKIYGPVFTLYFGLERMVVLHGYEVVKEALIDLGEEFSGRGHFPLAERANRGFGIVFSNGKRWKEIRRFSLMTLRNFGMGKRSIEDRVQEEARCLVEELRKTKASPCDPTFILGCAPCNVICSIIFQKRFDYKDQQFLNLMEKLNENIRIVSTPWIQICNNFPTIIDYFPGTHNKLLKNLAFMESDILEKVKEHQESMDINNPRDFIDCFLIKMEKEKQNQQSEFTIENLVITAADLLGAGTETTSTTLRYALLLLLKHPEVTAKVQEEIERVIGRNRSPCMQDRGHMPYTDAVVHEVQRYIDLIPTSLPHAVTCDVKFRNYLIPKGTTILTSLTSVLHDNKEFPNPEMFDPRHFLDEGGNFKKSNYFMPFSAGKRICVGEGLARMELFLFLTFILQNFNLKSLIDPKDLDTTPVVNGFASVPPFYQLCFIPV
Chain of CYP 3A4 (P08684 whole entry): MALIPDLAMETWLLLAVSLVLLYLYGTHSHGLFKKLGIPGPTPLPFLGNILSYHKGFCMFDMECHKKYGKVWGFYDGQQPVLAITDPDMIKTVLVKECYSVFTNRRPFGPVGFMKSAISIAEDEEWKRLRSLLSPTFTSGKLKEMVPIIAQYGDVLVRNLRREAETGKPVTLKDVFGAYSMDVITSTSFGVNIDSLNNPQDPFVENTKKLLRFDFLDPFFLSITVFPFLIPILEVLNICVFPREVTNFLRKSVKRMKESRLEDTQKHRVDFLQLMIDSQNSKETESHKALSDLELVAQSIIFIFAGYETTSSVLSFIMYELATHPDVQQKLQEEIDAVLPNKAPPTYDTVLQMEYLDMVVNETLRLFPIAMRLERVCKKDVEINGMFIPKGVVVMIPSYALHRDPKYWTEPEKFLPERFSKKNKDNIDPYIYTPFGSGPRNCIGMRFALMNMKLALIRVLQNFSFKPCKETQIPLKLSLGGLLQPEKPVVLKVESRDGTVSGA
Chain of CYP 2D6 (P10635 whole entry): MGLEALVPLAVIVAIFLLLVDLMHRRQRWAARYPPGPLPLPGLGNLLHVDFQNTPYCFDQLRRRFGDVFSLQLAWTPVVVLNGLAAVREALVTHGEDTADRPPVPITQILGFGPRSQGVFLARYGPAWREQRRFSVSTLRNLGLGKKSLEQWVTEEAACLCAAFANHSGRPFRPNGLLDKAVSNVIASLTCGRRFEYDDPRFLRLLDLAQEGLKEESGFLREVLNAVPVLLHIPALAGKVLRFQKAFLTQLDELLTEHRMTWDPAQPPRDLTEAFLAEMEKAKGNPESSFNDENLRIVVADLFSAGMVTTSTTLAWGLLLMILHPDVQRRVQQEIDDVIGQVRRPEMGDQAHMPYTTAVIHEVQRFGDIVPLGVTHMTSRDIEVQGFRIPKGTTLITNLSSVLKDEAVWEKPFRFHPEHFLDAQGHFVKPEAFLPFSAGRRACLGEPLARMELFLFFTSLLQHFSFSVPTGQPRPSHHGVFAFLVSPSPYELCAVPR
Chain of CYP 2C9 (P11712 whole entry): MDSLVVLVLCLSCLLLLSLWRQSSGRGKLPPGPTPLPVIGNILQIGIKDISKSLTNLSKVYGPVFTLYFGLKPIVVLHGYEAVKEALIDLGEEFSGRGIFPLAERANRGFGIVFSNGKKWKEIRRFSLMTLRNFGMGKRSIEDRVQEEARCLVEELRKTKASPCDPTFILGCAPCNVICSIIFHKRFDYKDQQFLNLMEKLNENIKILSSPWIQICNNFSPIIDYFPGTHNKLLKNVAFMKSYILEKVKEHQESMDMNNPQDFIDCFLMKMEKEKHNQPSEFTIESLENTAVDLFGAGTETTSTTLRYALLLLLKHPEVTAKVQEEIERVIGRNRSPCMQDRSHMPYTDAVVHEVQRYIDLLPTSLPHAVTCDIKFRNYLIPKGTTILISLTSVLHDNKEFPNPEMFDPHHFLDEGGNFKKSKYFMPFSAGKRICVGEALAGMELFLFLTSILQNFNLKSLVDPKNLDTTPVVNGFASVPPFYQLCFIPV

SMILES	EC50 (D2 receptor)	Emax (D2 receptor)	Emax (muscarinic M2 receptor)	EC50 (muscarinic M2 receptor)	Emax (muscarinic M1 receptor)	EC50 (muscarinic M1 receptor)	M3 eff (efficacy) (muscarinic M3 receptor)	IC50 (5-HT2A receptor)	MK-801 model (ID50 mg/kg sc) [2]	EC50 (M1 receptor)	Emax (M1 receptor)	also measured
Cc1cccc2c1Oc1ccc(C(F)(F)F)cc1N=C2N1CCNCC1 [4-Methyl-11-(piperazin-1-yl)-8-trifluoromethyl-dibenzo[b,f][1,4]oxazepine]			75%	794 nM				2510 nM	>10 mg/kg	316 nM	52%	D2 intrinsic activity, in words (D2 receptor; devoid of agonist activity): antagonist
Brc1ccc2c(c1)N=C(N1CCNCC1)c1ccccc1O2 [8-Bromo-11-(piperazin-1-yl)-dibenzo[b,f][1,4]oxazepine]	50.1 nM	34%	70%	1260 nM				25.1 nM		398 nM	36%	
CC1CN(C2=Nc3cc(Cl)ccc3Nc3ccccc32)CCN1 (stereo not drawn) [8-Chloro-11-(3-methyl-piperazin-1-yl)-5H-dibenzo[b,e][1,4]diazepine]			159%	1580 nM	28%	100 nM	19					
Fc1ccc2c(c1)N=C(N1CCNCC1)c1ccccc1O2 [8-Fluoro-11-(piperazin-1-yl)-dibenzo[b,f][1,4]oxazepine]	15.8 nM	73%	48%	2510 nM				501 nM		316 nM	39%	
Clc1ccc2c(c1)N=C(N1CCNCC1)c1ccccc1N2 [N-desmethylclozapine, reference compound]									3.5 mg/kg			Ames (Ames mutagenesis assay): Neg.; Amphetamine model (ID50 mg/kg po) [1]: >10 mg/kg; Amphetamine model (ID50 mg/kg sc) [1]: 5.2 mg/kg; MK-801 model (ID50 mg/kg po) [2]: 1.5 mg/kg; NOR Interpretation (novel object recognition): no effect; NOR - 60 minutes post training (novel object recognition): retained; NOR - 120 minutes post training (novel object recognition): not retained

Second part, led by results:

EC50 (D2 receptor)	Emax (D2 receptor)	Emax (muscarinic M2 receptor)	EC50 (muscarinic M2 receptor)	Emax (muscarinic M1 receptor)	EC50 (muscarinic M1 receptor)	M3 eff (efficacy) (muscarinic M3 receptor)	SMILES	IC50 (5-HT2A receptor)	MK-801 model (ID50 mg/kg sc) [2]	EC50 (M1 receptor)	Emax (M1 receptor)	also measured
12.6 nM	33%	113%	1260 nM				Clc1ccc2c(c1)N=C(N1CCNCC1)c1ccccc1C2 [3-Chloro-6-piperazin-1-yl-11H-dibenzo[b,e]azepine]	31.6 nM	0.7 mg/kg	100 nM	62%	Ames (Ames mutagenesis assay; to 10 μM (cytotoxicity precluded evaluation of all concentrations)): Neg.; Amphetamine model (ID50 mg/kg po) [1]: 2.8 mg/kg; Amphetamine model (ID50 mg/kg sc) [1]: 3.6 mg/kg; IC50 (CYP 2C9): > 10000 nM; microsomal CLint (Rat microsomal clearance): 383 µL/min/mg; IC50 (CYP 2D6): > 10000 nM; MK-801 model (ID50 mg/kg po) [2]: 1.6 mg/kg; IC50 (CYP 2C19): > 10000 nM; microsomal CLint [3]: 21 µL/min/mg; IC50 (CYP 1A2): > 10000 nM; IC50 (CYP 3A4): ~4000 nM; NOR Interpretation (novel object recognition): no effect; NOR - 60 minutes post training (novel object recognition): retained; NOR - 120 minutes post training (novel object recognition): not retained; IC50 (hERG): 1200 nM
		118%	1000 nM	78%	63.1 nM	44	Clc1ccc2c(c1)N=C(N1CCNCC1)c1cccc(Cl)c1N2 [4,8-Dichloro-11-(piperazin-1-yl)-5H-dibenzo[b,e][1,4]diazepine]					EC50 (muscarinic M3 receptor; read-out: M3 pEC50 (converted)): 158 nM
		105%	2510 nM	66%	126 nM	4	Clc1cccc2c1C(N1CCNCC1)=Nc1cc(Br)ccc1N2 [8-Bromo-1-chloro-11-(piperazin-1-yl)-5H-dibenzo[b,e][1,4]diazepine]					
		121%	501 nM	63%	63.1 nM	13	Brc1ccc2c(c1)N=C(N1CCNCC1)c1ccccc1N2 [8-Bromo-11-(piperazin-1-yl)-5H-dibenzo[b,e][1,4]diazepine]					
		162%	1000 nM	92%	63.1 nM	16	Cc1cccc2c1Nc1ccc(Cl)cc1N=C2N1CCNCC1 [8-Chloro-4-methyl-11-(piperazin-1-yl)-5H-dibenzo[b,e][1,4]diazepine]					
